Data set [1] has as its system Agrobacterium strain AGL0. In words: Agrobacterium growth assay on solid minimal medium, wild-type AGL0. On the set-up: key to Growth score: a score of zero (0) indicating no visible colonies; 1+ indicating a few isolated colonies; ++: progressing up to 5+; +++: progressing up to 5+; ++++: progressing up to 5+; +++++: 5+ indicating a confluent lawn. It counts as cell-based. As for the experimental part:
(§1) For all Agrobacterium growth-assay experiments, standard Agrobacterium minimal medium was used, with no additives as a control treatment, or with the addition of either 5-fluorocytosine, 5-fluorouracil or thymidine. To begin these tests, experiments were conducted to test for growth of wild-type and mutant AGL0 Agrobacterium strains on either 5-fluorocytosine (5-fluorocytosine, the non-toxic substrate of the CODA protein) or 5-fluorouracil (5-fluorouracil, the toxic product).
(§2) In Table 4, results of a more detailed kill-curve for strain AGL0 on 5-fluorouracil are shown. […] Finally, a third experiment was performed using either wild-type AGL0 or an auxotrophic mutant of AGL0 in which the gene encoding thymidylate synthase was inactivated, rendering the bacteria incapable of growth in the absence of thymidine (this strain was referred to as AGL0 THY−). The two strains were plated at high densities (10^6 or 10^8 CFU/plate) onto medium containing 0, 1 or 3 μg/ml 5-fluorouracil, with each of these three treatments containing either 0 or 50 mg/l thymidine.
(§3) The newly developed AGL0 mutant strain (THY−/codA+, see Example 1) was plated on varying concentrations of 5-fluorocytosine to assess growth. This strain, along with wild-type AGL0 were cultured overnight in liquid medium, diluted to 10^7 CFU and then 100 μl of suspension was plated onto minimal Agro medium+/− thymidine, with either 0, 100, 200 or 300 μg/ml 5-fluorocytosine, for a total of 8 treatments. After 72 hours at 28° C., the plates were scored for Agrobacterium growth.

Data set [2] relates to four Agrobacterium strains (AGL0, LBA4404, EHA101 and EHA105). In words: Agrobacterium growth assay, the four strains. It counts as cell-based. The settings on record: 5-fluorocytosine up to the highest concentration tested (1000 μg/ml). On the procedure: as §1
The test system of data set [3] is immature embryos of inbred HC69. The experiment in a line: Callus initiation from corn immature embryos, inbred HC69. It is filed as cell-based. The note with it: for HC69: embryos producing a callus response / embryos plated / Embryo with culture - Response (callus initiation frequency): 18 d cultured on 13152C; for Embryo with culture - Response (callus initiation frequency): HC69. As for the experimental part: (§4) Agrobacterium was tolerant of the substrate (5-fluorocytosine) and was inhibited by low levels of the converted product (5-fluorouracil). An experiment was performed to determine whether corn immature embryos and growing callus were sensitive to the substrate, 5-fluorocytosine. Immature embryos of two inbred lines ([…] or PHH5G, representative non-stiff-stalk and stiff-stalk Pioneer Hi-Bred inbreds) were plated onto appropriate callus culture media (see Table 6) supplemented with 0, 100, […]

For data set [4], the system named is Agrobacterium strain LBA4404. The experiment in a line: Agrobacterium growth assay on solid minimal medium, LBA4404. It counts as cell-based. On the set-up: key: a score of zero (0) indicating no visible colonies; 1+ indicating a few isolated colonies; ++: progressing up to 5+; +++: progressing up to 5+; ++++: progressing up to 5+; +++++: 5+ indicating a confluent lawn. The note with it: LBA4404 plated at 1 × 10^4, after 3 days. On the procedure:
as §1

Data set [5] concerns Agrobacterium strain EHA105. In words: Agrobacterium growth assay on solid minimal medium, EHA105. It is filed as cell-based. Details: key: a score of zero (0) indicating no visible colonies; 1+ indicating a few isolated colonies; ++: progressing up to 5+; +++: progressing up to 5+; ++++: progressing up to 5+; +++++: 5+ indicating a confluent lawn. The note with it: EHA105 plated at 1 × 10^4, after 3 days. As for the experimental part: as §1

Data set [6] relates to immature embryos of inbred PHH5G. In words: Callus initiation from corn immature embryos, inbred PHH5G. It is filed as cell-based. The note with it: for PHH5G: embryos producing a callus response / embryos plated / Embryo with culture - Response (callus initiation frequency): 18 d cultured on 13152C; for Embryo with culture - Response (callus initiation frequency): PHH5G. As for the experimental part:
as §4

The subject of data set [7] is AGL0 mutant strain (THY−/codA+). In words: Growth of AGL0 THY−/codA+ on 5-fluorocytosine. It counts as cell-based, Agrobacterium. As for the experimental part: as §3
Data set [8] has as its system Agrobacterium strain EHA101. In words: Agrobacterium growth assay on solid minimal medium, EHA101. The settings on record: EHA101 plated at 1 x 10^4, after 3 days. On the set-up: key: a score of zero (0) indicating no visible colonies; 1+ indicating a few isolated colonies; ++: progressing up to 5+; +++: progressing up to 5+; ++++: progressing up to 5+; +++++: 5+ indicating a confluent lawn. It is filed as cell-based. On the procedure: as §1

In the next data set the test system is AGL0 THY−. In words: Agrobacterium growth assay on solid medium, thymidine auxotroph AGL0 THY−. It is filed as cell-based. The note with it: thy 50 mg/l, 5-fluorouracil 0 μg/ml, after 24 hours. As for the experimental part:
as §2

With `Nc1nc(=O)[nH]cc1F` [5-fluorocytosine], the Growth score result in [1] (AGL0 plated at 1 × 10^4, 500 μg/ml 5-fluorocytosine, after 3 days) is “+++”; in [1] (AGL0 plated at 1 × 10^4, 1000 μg/ml 5-fluorocytosine, after 3 days), “+++”; in [1] (AGL0 plated at 4 × 10^7, 500 μg/ml 5-fluorocytosine, after 3 days), “+++++”; in data set [1] (AGL0 plated at 4 × 10^7, 1000 μg/ml 5-fluorocytosine, after 3 days), “+++++”; in data set [4] (500 μg/ml 5-fluorocytosine), “+++”; in [4] (1000 μg/ml 5-fluorocytosine) it was “+++”. Further, the Growth score result in data set [5] (500 μg/ml 5-fluorocytosine), in [5] (1000 μg/ml 5-fluorocytosine), in data set [8] (500 μg/ml 5-fluorocytosine) and in data set [8] (1000 μg/ml 5-fluorocytosine) was “+++” each time. Also, the Growth result in data set [1] (wild-type AGL0, 100, 200 or 300 μg/ml 5-fluorocytosine, +/− thymidine, 72 hours at 28° C.) is recorded as “grew under all 5-fluorocytosine concentrations”; in [7] (100, 200 or 300 μg/ml 5-fluorocytosine, thymidine present, 72 hours at 28° C.) it was “did not grow”. Further, in [2], the Growth inhibition result is reported as “no apparent growth inhibition”. In addition, the “HC69: embryos producing a callus response / embryos plated” value in [3] (100 μg/ml 5-fluorocytosine) is reported as 32/50; in [3] (250 μg/ml 5-fluorocytosine), 34/50; in [3] (400 μg/ml 5-fluorocytosine) it was 34/50. The “Embryo with culture - Response (callus initiation frequency)” value turned out to be 64% in [3] (100 μg/ml 5-fluorocytosine); 68% in data set [3] (250 μg/ml 5-fluorocytosine); 68% in data set [3] (400 μg/ml 5-fluorocytosine); 24% in [6] (100 μg/ml 5-fluorocytosine); 36% in data set [6] (250 μg/ml 5-fluorocytosine); 32% in data set [6] (400 μg/ml 5-fluorocytosine). Also, the “Callus initiation frequency or callus growth rates vs no 5-fluorocytosine” value in [3] (inbred printed as HC96, 100, 250 or 400 μg/ml 5-fluorocytosine, 3 weeks) is on record as “no discernible differences”; in data set [6] (inbred PHH5G, 100, 250 or 400 μg/ml 5-fluorocytosine, 3 weeks), “no discernible differences”. Also, the entries for the “PHH5G: embryos producing a callus response / embryos plated” value in data set [6] (100 μg/ml 5-fluorocytosine), in data set [6] (250 μg/ml 5-fluorocytosine) and in [6] (400 μg/ml 5-fluorocytosine) were 12/50, 18/50 and 8/25, respectively.

On to `Cc1cn([C@H]2C[C@H](O)[C@@H](CO)O2)c(=O)[nH]c1=O` [thy, thymidine], for which the Growth score result with AGL0 THY− (AGL0 THY- 1 x 10^6) is recorded as “+++”; in the data set with AGL0 THY− (AGL0 THY- 1 x 10^8) it was “+++”; in data set [1] (AGL0 1 x 10^6, thy 50 mg/l, 5-fluorouracil 0 μg/ml, after 24 hours) it was “+++”; in [1] (AGL0 1 x 10^8, thy 50 mg/l, 5-fluorouracil 0 μg/ml, after 24 hours), “+++”. Moreover, the Growth result in data set [7] (50 mg/l thymidine, no 5-fluorocytosine, 72 hours) is reported as “confluent lawn of colonies”.
